In US12171756B2, “NLRP3 modulators” (Innate Tumor Immunity, Inc., priority 2017, dated 2024):
Where two headings read alike, the source gives them in different places.

Experiments:
human TLR7 = target: T1, human TLR7 (Homo sapiens, UniProt Q9NYK1); experiment: In vitro human TLR7 binding reporter assay (HEK-Blue, NF-kB/AP1-inducible SEAP); type: cell-based; details: HEK-Blue human TLR7 SEAP reporter cells; activity range classes; read-out: TLR7 Agonist EC50
T1 construct: host or cells: human HEK-Blue cells (HEK293-derived) co-expressing TLR7 and an NF-kB/AP1-inducible SEAP reporter
T1 sequence (Q9NYK1 27-1049): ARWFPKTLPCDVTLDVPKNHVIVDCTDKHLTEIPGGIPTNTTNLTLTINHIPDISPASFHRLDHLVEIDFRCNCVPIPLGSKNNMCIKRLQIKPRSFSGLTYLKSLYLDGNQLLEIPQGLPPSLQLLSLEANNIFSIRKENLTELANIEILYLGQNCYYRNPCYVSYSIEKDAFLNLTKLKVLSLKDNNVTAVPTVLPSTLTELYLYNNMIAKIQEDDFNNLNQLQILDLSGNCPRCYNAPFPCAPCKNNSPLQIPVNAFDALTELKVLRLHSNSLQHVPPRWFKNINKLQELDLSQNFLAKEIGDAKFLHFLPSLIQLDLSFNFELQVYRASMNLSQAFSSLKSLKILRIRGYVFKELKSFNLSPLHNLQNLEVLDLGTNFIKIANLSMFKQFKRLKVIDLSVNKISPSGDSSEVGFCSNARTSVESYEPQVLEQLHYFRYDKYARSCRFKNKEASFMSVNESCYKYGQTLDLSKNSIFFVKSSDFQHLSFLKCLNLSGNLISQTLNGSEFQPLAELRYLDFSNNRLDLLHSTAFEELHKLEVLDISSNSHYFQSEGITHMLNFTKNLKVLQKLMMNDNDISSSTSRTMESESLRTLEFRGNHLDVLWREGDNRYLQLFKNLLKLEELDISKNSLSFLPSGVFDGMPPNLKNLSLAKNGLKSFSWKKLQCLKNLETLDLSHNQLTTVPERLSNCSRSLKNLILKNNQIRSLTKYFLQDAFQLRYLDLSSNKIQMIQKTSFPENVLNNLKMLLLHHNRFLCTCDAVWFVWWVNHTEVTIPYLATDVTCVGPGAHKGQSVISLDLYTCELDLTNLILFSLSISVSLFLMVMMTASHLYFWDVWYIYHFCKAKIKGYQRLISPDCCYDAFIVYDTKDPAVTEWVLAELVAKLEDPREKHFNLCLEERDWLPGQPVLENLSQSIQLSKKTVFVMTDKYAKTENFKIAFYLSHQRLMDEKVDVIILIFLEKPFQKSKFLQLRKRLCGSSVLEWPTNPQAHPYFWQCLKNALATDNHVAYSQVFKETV
Method: (§1) In Vitro Human TLR7 and TLR8 Binding Reporter Assays
(§2) Logarithmically-growing human HEK-Blue cells co-expressing a TLR7 or TLR8 gene and a NF-kB/AP1-inducible SEAP (secreted embryonic alkaline phosphatase; Invivogen, San Diego, CA) reporter gene are added to individual wells of a 384-well plate (15,000 cells per 20 μL per well) and maintained for 24 h at 37° C., 5% CO2. Test compounds or DMSO are distributed to separate wells the next day using acoustic liquid handling technology (100 nL per well) and cells are subsequently incubated for 18 h at 37° C., 5% CO2. Cellular SEAP production is measured using an Envision plate reader instrument thirty minutes after adding freshly-made Quanti-Blue reagent (prepared by following manufacturer instructions; Invivogen, San Diego, CA) to the HEK-Blue TLR Nf-kB-SEAP cell reactions. All EC50 values (half-maximal effective concentration) are determined using proprietary data analysis software. Normalized EC50 value=absolute value determined by setting 100% Ymax using a reference standard RLU (relative light unit) values from cells treated with 50 μM of the reference standard.

[1] = tested on: IL-1β production in PMA-differentiated THP-1 cells; experiment: Measurement of IL-1β production in PMA-differentiated THP-1 cells (ELISA, 4 hours); type: cell-based, human; details: assayed using one or more of the described procedures, read-out: NLRP3 hIL1B IC50
Method: Measurement of IL-1β Production in PMA-Differentiated THP-1 Cells THP-1 cells were purchased from the American Type Culture Collection and sub-cultured according to instructions from the supplier. Prior to experiments, cells were cultured in RPMI 1640 containing 10% heat inactivated FBS, penicillin (100 units/ml) and streptomycin (100 μg/ml), and maintained in log phase prior to experimental setup. Prior to the experiment THP-1 were treated with PMA (Phorbol 12-myristate 13-acetate) (10 μg/ml) for 24 hours. The day of the experiment the media was removed and attaching cells were treated with trypsin for 2 minutes, cells were then collected, washed with PBS (phosphate buffer saline), spin down, resuspended in 2% heat inactivated FBS with RPMI at a concentration of 1×10^6 cells/ml, and 100 μl was plated in a 96 well plate. Compounds were dissolved in dimethyl sulfoxide (DMSO) and added to the culture medium to achieve desired concentration (e.g. 100, 30, 10, 3, 1, 0.3 or 0.1 μM). Cells were incubated with compounds for 4 hours. Cell free supernatant was collected and the production of IL-1β was evaluated by ELISA. A vehicle only control was run concurrently with each experiment. Final DMSO concentration was 1%.

human TLR8 = target: T2, human TLR8 (Homo sapiens, UniProt Q9NR97); experiment: In vitro human TLR8 binding reporter assay (HEK-Blue, NF-kB/AP1-inducible SEAP); type: cell-based; details: HEK-Blue human TLR8 SEAP reporter cells; activity range classes; read-out: TLR8 Agonist EC50
T2 construct: host or cells: human HEK-Blue cells (HEK293-derived) co-expressing TLR8 and an NF-kB/AP1-inducible SEAP reporter
T2 sequence (Q9NR97 27-1041): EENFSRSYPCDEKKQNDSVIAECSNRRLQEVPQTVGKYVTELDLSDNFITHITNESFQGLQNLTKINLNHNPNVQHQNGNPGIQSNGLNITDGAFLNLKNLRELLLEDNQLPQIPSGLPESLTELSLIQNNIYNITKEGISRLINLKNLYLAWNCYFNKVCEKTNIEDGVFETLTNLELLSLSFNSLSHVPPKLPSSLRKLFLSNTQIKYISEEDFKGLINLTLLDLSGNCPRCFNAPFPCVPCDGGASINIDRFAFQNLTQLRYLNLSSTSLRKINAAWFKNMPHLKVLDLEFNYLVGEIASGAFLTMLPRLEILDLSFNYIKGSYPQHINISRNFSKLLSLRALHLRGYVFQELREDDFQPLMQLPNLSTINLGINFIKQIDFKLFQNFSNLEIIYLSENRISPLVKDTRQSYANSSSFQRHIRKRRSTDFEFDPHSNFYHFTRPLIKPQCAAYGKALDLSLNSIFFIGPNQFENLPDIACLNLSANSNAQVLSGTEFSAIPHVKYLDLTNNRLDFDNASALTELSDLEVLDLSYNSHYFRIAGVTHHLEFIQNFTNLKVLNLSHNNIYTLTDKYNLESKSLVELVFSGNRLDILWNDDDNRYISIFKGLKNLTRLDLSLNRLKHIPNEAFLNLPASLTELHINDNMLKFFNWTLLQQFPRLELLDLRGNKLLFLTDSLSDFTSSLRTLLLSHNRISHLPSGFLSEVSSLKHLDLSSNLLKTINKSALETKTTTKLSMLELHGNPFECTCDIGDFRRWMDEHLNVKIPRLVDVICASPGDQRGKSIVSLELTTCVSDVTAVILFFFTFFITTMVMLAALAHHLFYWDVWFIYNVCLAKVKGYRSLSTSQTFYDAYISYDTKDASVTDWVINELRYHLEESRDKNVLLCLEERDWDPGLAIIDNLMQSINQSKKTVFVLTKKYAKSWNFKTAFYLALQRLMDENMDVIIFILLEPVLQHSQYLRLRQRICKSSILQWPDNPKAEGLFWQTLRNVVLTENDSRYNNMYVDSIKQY
Method: as §1, §2

[2] = Homo sapiens, THP-1, human IL-1β production

Compound | EC50 (human TLR7) [µM] | IC50 ([1]; human IL-1β production) [nM] | EC50 (human TLR8) [µM] | IC50 [1, 2] [nM]
3-[4-amino-7-(1H-pyrazol-3-yl)-[1,3]oxazolo[4,5-c]quinolin-2-yl]propan-1-ol [Compound 107] | > 100 | 340 | > 100 | 
Nc1cc(N[C@H]2CCCC[C@H]2O)c2ccc(-c3ccn[nH]3)cc2n1 (racemic) [Compound 157] | > 100 | 730 | > 100 | 
Nc1cc(O[C@H]2COC[C@H]2O)c2ccc(-c3ccn[nH]3)cc2n1 (racemic) [Compound 197] | > 100 |  | > 100 | 2860
Nc1cc(NC2CCNC2)c2ccc(-c3ccn[nH]3)cc2n1 (stereo in doubt) [Compound 321, (S)-7-(1H-pyrazol-3-yl)-N4-(pyrrolidin-3-yl)quinoline-2,4-diamine] | > 100 | 11600 | > 100 | 
Nc1nc2cc(-c3cc[nH]n3)ccc2cc1CCCCCO [Compound 101, 5-[2-amino-7-(1H-pyrazol-3-yl)quinolin-3-yl]pentan-1-ol] | > 100 |  | > 100 | 790
Nc1nc2cc(-c3cc[nH]n3)ccc2cc1CCCCO [Compound 102, 4-[2-amino-7-(1H-pyrazol-3-yl)quinolin-3-yl]butan-1-ol] | > 100 |  | > 100 | 1380
Nc1nc2cc(-c3cc[nH]n3)ccc2cc1CCCO [Compound 103, 3-[2-amino-7-(1H-pyrazol-3-yl)quinolin-3-yl]propan-1-ol] | > 100 |  | > 100 | 1600
Nc1nc2cc(-c3cc[nH]n3)ccc2cc1CCCOCc1ccccc1 [Compound 104, 3-[3-(benzyloxy)propyl]-7-(1H-pyrazol-3-yl)quinolin-2-amine] | > 100 |  | > 100 | 690
Nc1nc2cc(-c3cc[nH]n3)ccc2cc1CCCCOCc1ccccc1 [Compound 105, 3-[4-(benzyloxy)butyl]-7-(1H-pyrazol-3-yl)quinolin-2-amine] | > 100 |  | > 100 | 2980
Nc1nc2cc(-c3cc[nH]n3)ccc2cc1CCCCCOCc1ccccc1 [Compound 106, 3-[5-(benzyloxy)pentyl]-7-(1H-pyrazol-3-yl)quinolin-2-amine] | > 100 |  | > 100 | 3820
Nc1cc(CCCOCc2ccccc2)c2ccc(-c3cc[nH]n3)cc2n1 [Compound 108, 4-[3-(benzyloxy)propyl]-7-(1H-pyrazol-3-yl)quinolin-2-amine] |  |  |  | 1150
CC(=O)NCCCCc1cc2ccc(-c3cc[nH]n3)cc2nc1N [Compound 109] | > 100 |  | > 100 | 4330
CCNCCCc1cc2ccc(-c3cc[nH]n3)cc2nc1N [Compound 110, 3-[3-(ethylamino)propyl]-7-(1H-pyrazol-3-yl)quinolin-2-amine] | > 100 |  | > 100 | 1640
CCN(CCCCc1cc2ccc(-c3cc[nH]n3)cc2nc1N)C(C)=O [Compound 111] | > 100 |  | > 100 | 2460
Nc1nc2cc(-c3ccn[nH]3)ccc2cc1CNCC1CCCO1 (stereo not drawn) [Compound 117] |  |  |  | 5800
Nc1nc2cc(-c3ccn[nH]3)ccc2cc1C1(CO)CC1 [Compound 120] |  |  |  | 4240
Nc1nc2cc(-c3ccn[nH]3)ccc2cc1CCN1CCOCC1 [Compound 121] |  |  | > 100 | 3030
CN1CCN(CCc2cc3ccc(-c4ccn[nH]4)cc3nc2N)CC1 [Compound 122] |  |  |  | 1870
Nc1nc2cc(-c3ccn[nH]3)ccc2cc1-c1cnc[nH]1 [Compound 123, 3-(1H-imidazol-5-yl)-7-(1H-pyrazol-5-yl)quinolin-2-amine] |  |  |  | 3010
Nc1nc2cc(-c3ccn[nH]3)ccc2cc1-c1cccc(CO)n1 [Compound 125] |  |  |  | 1980
Cc1n[nH]c(-c2cc3ccc(-c4ccn[nH]4)cc3nc2N)n1 [Compound 126] |  |  |  | 3530
CN1CCN(c2cc(N)nc3cc(-c4ccn[nH]4)ccc23)CC1 [Compound 130] |  |  | > 100 | 2760
CN(C)CCCNc1cc(N)nc2cc(-c3ccn[nH]3)ccc12 [Compound 168, N4-(3-(dimethylamino)propyl)-7-(1H-pyrazol-5-yl)quinoline-2,4-diamine] |  |  | > 100 | 2400
Nc1cc(NCCCO)c2ccc(-c3ccn[nH]3)cc2n1 [Compound 171] |  |  | > 100 | 380
Nc1cc(OCCCN2CCCC2=O)c2ccc(-c3ccn[nH]3)cc2n1 [Compound 181] |  |  | > 100 | 9920
CN1CCN(CCCCOc2cc(N)nc3cc(-c4ccn[nH]4)ccc23)CC1 [Compound 184] |  |  | > 100 | 7270
Nc1cc(NCCC2CCOCC2)c2ccc(-n3cccn3)cc2n1 [Compound 346, 7-(1H-pyrazol-1-yl)-N4-(2-(tetrahydro-2H-pyran-4-yl)ethyl)quinoline-2,4-diamine] | > 100 |  |  | 760
